Assay results reported in US9217157B2, “Recombinant influenza viruses and uses thereof” (Icahn School of Medicine at Mount Sinai, priority 2009, dated 2015).

Experiments:
NS1-GFP virus [1] = tested on: NS1-GFP virus; set-up: species or system influenza A virus; conditions: in vivo
NS1-GFP virus [2] = type: in vivo, influenza A virus

Row | Structure (SMILES) | effect on NS1-GFP infection in different cell types, in words (NS1-GFP virus [1]) | prevention of infection in B and NK cells (NS1-GFP virus [1]) | reduction in infection of CD11b+ CD11c+ cells (NS1-GFP virus [1]) [%] | reduction in infection of epithelial (CD45-) cells (NS1-GFP virus [1]) [%] | number of infiltrating cells (inflammatory monocytes and neutrophils), in words (NS1-GFP virus [1]) | GFP fluorescence intensity of lungs lower than in untreated mice (NS1-GFP virus [2]; day 2 post-infection, 10^6 pfu, 50 mg/Kg once daily from day of infection) [fold] | spread of GFP signal in lungs, in words (NS1-GFP virus [2]; day 4 post infection, treatment from day of infection) | GFP fluorescence signal in lungs vs no treatment, in words (NS1-GFP virus [2]; day 4 post infection, treatment started two days after infection (day+2))
1 | NC12CC3CC(CC(C3)C1)C2 [amantadine] | most effective in blocking infection of NK and B cells, but was less potent for other cell types | 3-4 fold | 50 | 50 | – | – | – | –
2 | CCOC(=O)C1=C[C@@H](OC(CC)CC)[C@H](NC(C)=O)[C@@H](N)C1 [oseltamivir] | dramatically reduced infection rate in all of the examined cell types | – | – | – | dramatically lower than in amantadine treated mice | 3 to 5 | significantly restricted the spread of viral infection | no significant difference
